Measurements as given in patent US6359138B1, “4-hydroxy-piperidine derivatives” (Hoffmann-La Roche Inc., priority 1996, dated 2002).
Counter-ions that a name gives are not always drawn. Marks after values point to notes of the source that are not given here.

Assays:
[1] = molecular target: T1, NMDA receptor (3H-Ro 25-6981 binding, rat brain membranes) (Rattus norvegicus, UniProt P35439+Q00960); assay: 3H-Ro 25-6981 binding; conditions: 5 nM 3H-Ro 25-6981, 2 hours at 4° C.
T1 construct: Membranes were prepared by homogenization of the whole brain minus cerebellum and medulla oblongata; from tissue; host or cells: rat whole brain minus cerebellum and medulla oblongata, membranes
T1 sequence (Q00960 27-1482, other chains not shown): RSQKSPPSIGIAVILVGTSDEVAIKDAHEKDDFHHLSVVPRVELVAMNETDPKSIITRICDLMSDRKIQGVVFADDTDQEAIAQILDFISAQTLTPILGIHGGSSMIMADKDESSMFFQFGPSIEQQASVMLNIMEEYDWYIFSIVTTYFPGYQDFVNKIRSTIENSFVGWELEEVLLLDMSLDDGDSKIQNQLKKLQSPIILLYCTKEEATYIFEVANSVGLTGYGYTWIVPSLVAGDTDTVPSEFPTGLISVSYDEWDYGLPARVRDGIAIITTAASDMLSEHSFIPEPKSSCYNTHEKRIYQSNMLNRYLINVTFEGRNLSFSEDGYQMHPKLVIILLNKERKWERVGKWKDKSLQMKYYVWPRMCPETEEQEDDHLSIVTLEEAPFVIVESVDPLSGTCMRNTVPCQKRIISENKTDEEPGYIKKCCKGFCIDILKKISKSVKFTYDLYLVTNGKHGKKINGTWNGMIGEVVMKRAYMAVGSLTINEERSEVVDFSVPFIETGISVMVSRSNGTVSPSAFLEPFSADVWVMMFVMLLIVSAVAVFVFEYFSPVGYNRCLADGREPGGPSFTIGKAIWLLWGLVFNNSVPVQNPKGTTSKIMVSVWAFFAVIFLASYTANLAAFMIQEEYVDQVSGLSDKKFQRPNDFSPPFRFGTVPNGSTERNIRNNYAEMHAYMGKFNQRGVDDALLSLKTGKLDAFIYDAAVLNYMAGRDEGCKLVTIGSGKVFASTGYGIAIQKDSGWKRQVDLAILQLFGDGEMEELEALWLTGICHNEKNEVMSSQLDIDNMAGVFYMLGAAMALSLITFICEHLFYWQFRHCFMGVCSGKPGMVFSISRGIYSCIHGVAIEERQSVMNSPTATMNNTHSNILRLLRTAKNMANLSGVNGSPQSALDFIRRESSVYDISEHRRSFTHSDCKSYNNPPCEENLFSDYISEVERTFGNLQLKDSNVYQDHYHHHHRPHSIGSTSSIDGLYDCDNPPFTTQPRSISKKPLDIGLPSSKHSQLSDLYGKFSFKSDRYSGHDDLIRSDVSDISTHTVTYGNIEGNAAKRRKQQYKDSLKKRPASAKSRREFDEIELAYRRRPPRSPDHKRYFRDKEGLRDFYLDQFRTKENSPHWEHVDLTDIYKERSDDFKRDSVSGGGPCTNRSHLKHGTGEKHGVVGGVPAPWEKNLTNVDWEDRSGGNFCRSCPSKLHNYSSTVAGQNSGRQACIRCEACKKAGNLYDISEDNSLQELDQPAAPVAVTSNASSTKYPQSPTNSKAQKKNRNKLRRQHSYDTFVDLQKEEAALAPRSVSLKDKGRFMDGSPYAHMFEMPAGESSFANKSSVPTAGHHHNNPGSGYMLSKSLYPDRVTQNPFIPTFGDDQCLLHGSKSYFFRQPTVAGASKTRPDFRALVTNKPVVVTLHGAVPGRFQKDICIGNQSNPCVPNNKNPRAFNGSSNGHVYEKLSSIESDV
Procedure: 3H-Ro 25-6981 Binding (Ro 25-6981 is [R-(R*,S*)]-a-(4-Hydroxy-phenyl)-b-methyl-4-(phenyl-methyl)-1-piperidine Propanol)
Male Füillinsdorf albino rats weighing between 150-200 g were used. Membranes were prepared by homogenization of the whole brain minus cerebellum and medulla oblongata with a Polytron (10.000 rpm, 30 seconds), in 25 volumes of a cold Tris-HCl 50 mM, EDTA 10 mM, pH 7.1 buffer. The homogenate was centrifuged at 48.000 g for 10 minutes at 4° C. The pellet was resuspended using the Polytron in the same volume of buffer and the homogenate was incubated at 37° C. for 10 minutes. After centrifugation the pellet was homogenized in the same buffer and frozen at −80° C. for at least 16 hours but not more than 10 days. For the binding assay the homogenate was thawed at 37° C., centrifuged and the pellet was washed three times as above in a Tris-HCl 5 mM, pH 7.4 cold buffer. The final pellet was resuspended in the same buffer and used at a final concentration of 200 μg of protein/ml. 3H-Ro 25-6981 binding experiments were performed using a Tris-HCl 50 mM, pH 7.4 buffer. For displacement experiments 5 nM of 3H-Ro 25-6981 were used and non specific binding was measured using 10 μM of tetrahydroisoquinoline and usually it accounts for 10% of the total. The incubation time was 2 hours at 4° C. and the assay was stopped by filtration on Whatmann GF/B glass fiber filters (Unifilter-96, Packard, Zütrich, Switzerland). The filters were washed 5 times with cold buffer. The radioactivity on the filter was counted on a Packard Top-count microplate scintillation counter after addition of […] of microscint 40 (Canberra Packard S. A., Zürich, Switzerland).
The effects of compounds were measured using a minimum of 8 concentrations and repeated at least once. The pooled normalized values were analyzed using a non-linear regression calculation program which provide IC50 with their relative upper and lower 95% confidence limits (RS1, BBN, USA).

[2] = molecular target: 3H-Prazosine binding (rat brain membranes); assay: 3H-Prazosine binding; conditions: 0.2 nM 3H-Prazosine, 30 minutes at room temperature
Procedure: Male Füllinsdorf albino rats weighing between 150-200 g were used. Membranes were prepared by homogenization of the whole brain minus cerebellum and medulla oblongata with a Plytron (10.000 rpm, 30 seconds), in 25 volumes of a cold Tris-HCl 50 mM, EDTA 10 mM, pH 7.1 buffer. The homogenate was centrifuged at 48.000 g for 10 minutes at 4° C. The pellet was resuspended using the Polytron in the same volume of buffer and the homogenate was incubated at 37° C. for 10 minutes. After centrifugation the pellet was homogenized in the same buffer and frozen at −80° C. for at least 16 hours but not more than 10 days. For the binding assay the homogenate was thawed at 37° C., centrifuged and the pellet was washed three times as above in a Tris-HCl 5 mM, pH 7.4 cold buffer. The final pellet was resuspended in the same buffer and used at a final concentration of 200 μg of protein/ml.
3H-Prazosine binding experiments were performed using a Tris-HCl 50 mM, pH 7.4 buffer. For displacement experiments 0.2 nM of 3H-Prazosine were used and non specific binding was measured using 100 μM of Chlorpromazine. […] The radioactivity on the filter was counted on a Packard Top-count microplate scintillation counter after addition of […] of microscint 40 (Canberra Packard S. A., Zürich, Switzerland). The effects of compounds were measured using a minimum of 8 concentrations and repeated at least once. […]

[3] = molecular target: T2, NR1C + NR2A NMDA receptor (Rattus norvegicus, UniProt P35439+Q00959); assay: Electrophysiology on recombinant NMDA receptors, NR1C + NR2A in Xenopus oocytes; format: cell-based; conditions: 10 μM compound; Xenopus laevis oocytes, voltage clamp −80 mV, 2.7 μM Glu plus 0.9 μM Gly; mean of 4-6 oocytes
T2 construct: expressed in transfected cells; host or cells: Xenopus laevis oocytes (nuclear injection of pBC/CMV plasmids)
T2 sequence (Q00959 23-1464, other chains not shown): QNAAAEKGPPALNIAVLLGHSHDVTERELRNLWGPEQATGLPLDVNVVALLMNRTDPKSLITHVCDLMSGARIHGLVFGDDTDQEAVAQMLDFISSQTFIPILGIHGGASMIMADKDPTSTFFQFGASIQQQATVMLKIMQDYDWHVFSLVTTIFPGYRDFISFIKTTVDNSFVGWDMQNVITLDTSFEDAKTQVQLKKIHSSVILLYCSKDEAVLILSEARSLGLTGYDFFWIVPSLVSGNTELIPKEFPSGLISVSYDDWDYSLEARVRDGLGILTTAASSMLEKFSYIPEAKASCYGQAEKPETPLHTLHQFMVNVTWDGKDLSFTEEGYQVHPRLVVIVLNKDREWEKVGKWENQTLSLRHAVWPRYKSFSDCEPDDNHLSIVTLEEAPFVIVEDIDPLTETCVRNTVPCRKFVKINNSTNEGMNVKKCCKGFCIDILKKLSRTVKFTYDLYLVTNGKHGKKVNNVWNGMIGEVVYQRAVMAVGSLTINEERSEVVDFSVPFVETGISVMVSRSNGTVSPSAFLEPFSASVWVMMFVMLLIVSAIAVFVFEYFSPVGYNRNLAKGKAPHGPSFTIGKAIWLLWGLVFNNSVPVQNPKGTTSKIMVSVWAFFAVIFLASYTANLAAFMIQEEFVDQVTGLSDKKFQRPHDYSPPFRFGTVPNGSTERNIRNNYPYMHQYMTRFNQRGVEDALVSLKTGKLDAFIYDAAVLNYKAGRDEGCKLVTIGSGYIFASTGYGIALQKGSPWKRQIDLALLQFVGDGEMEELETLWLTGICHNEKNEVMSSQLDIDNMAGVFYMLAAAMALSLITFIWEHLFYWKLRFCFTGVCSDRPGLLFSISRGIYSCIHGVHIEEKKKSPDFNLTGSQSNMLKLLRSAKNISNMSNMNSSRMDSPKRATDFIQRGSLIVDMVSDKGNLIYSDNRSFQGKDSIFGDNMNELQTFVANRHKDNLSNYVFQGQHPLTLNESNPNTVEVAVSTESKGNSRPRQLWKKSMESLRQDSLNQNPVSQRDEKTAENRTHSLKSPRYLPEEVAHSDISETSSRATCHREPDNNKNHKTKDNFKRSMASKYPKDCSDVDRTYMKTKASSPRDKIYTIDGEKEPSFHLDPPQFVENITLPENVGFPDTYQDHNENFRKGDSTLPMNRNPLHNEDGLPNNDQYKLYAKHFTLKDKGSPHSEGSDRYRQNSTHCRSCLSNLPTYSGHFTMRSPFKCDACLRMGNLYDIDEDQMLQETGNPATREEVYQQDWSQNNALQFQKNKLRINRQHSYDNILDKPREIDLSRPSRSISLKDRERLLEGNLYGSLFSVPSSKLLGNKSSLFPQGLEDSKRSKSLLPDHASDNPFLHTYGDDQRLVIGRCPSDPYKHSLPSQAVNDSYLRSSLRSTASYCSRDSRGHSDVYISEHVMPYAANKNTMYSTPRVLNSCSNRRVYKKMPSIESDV
Text: (§1) Electrophysiology on Recombinant NMDA Receptors
(§2) cDNA clones coding for the subunits NR1C and NR2A of the NMDA receptor (see Hollmann and Heinemann, 1994, Annu. Rev. Neurosci. 17:31 for nomenclature of NMDA receptor subunits) were isolated from a rat brain λgt11 cDNA library as published elsewhere (Sigel et al., 1994, J. Biol. Chem. 269:8204). The clone for the subunit NR2B of the rat brain NMDA receptor was obtained from S. Nakanishi (Kyoto, Japan). The cDNAs encoding rat NR1C, NR2A and NR2B were subcloned into the expression vector pBC/CMV (Bertocci et al., 1991, Proc. Natl. Acad. Sci. U.S.A. 88:1416), placing transcription of the cDNA under control of the human cytomegalovirus promoter. CsCl-purified expression plasmids were mixed in a 1:3 ratio of NR1C:NR2A or NR1C:NR2B in injection buffer (88 mM NaCl, 1 mM KCl, 15 mM HEPES, at pH 7.0). Oocytes of South African frogs (Xenopus laevis) were used for expressing either a combination of the NR1C and NR2A subunits or the NR1C and NR2B subunits. 12 to 120 pg of a 1:3 (NR1C:NR2B) mixture of the respective cDNA species were injected into the nucleus of every oocyte. On the following two days the ion current through the NMDA receptor channels was measured in voltage clamp experiments for the methods of cDNA expression in oocytes and voltage-clamping (see, e.g., Bertrand et al., 1991, Methods in Neurosciences 4:174). The membrane potential was clamped to −80 mV and the receptors were activated by applying a modified Ringer,s solution containing the NMDA-receptor agonists L-glutamate (Glu) and glycine (Gly). Different agonist concentrations were chosen for either subunit combination to account for the different agonist sensitivities of the two types of receptors (2.7 μM Glu plus 0.9 μM Gly for NR1C+NR2A and 1.3 μM Glu plus 0.07 μM Gly for NR1C+NR2B). The agonists were applied for 15 s intervals once every 2.5 min by rapid superfusion of the oocyte with agonist containing solution and the amplitude of the agonist-evoked current was measured immediately before the end of each application. After a series of initial control applications the antagonist to be tested was added to both, the basal Ringer,s and the agonist containing solution. The antagonist concentration applied to oocytes expressing the NR2A subunit was 10 μmol/l, whereas 0.1 μtmol/ were applied to the NR2B expressing oocytes. Four to six oocytes were tested for every compound and NMDA receptor subtype. Oocytes were exposed to the compounds for 5 to 30 min depending on the time needed for reaching an equilibrium block of the NMDA receptor current. For every oocyte the decrease of the current amplitude was expressed as a percentage of the control current measured before application of the compound. Figures in the table are arithmetic mean values of these percentage values.

[4] = molecular target: T3, NR1C + NR2B NMDA receptor (Rattus norvegicus, UniProt P35439+Q00960); assay: Electrophysiology on recombinant NMDA receptors, NR1C + NR2B in Xenopus oocytes; format: cell-based; conditions: 0.1 μM compound; Xenopus laevis oocytes, voltage clamp −80 mV, 1.3 μM Glu plus 0.07 μM Gly; mean of 4-6 oocytes
T3 construct: expressed in transfected cells; host or cells: Xenopus laevis oocytes (nuclear injection of pBC/CMV plasmids)
T3 sequence (Q00960 27-1482, other chains not shown): as the sequence (Q00960 27-1482, other chains not shown) above
Text: as §1
as §2, with “Figures in the table are arithmetic mean values of these percentage values.” left out

`Cc1ccc(CC2(O)CCN(CC3Cc4ccc(O)cc4C3)CC2)cc1.Cl` (racemic) gave a melting point of 88 to 90 °C.
For `Cc1ccc(CC2(O)CCN(C[C@H]3CCc4cc(O)ccc4[C@@H]3O)CC2)cc1` (racemic) [Example 27, (1RS, 2RS)-1-(1,6-Dihydroxy-1,2,3,4-tetrahydro-naphthalen-2-ylmethyl)-4-(4-methyl-benzyl)-piperidin-4-ol fumarate salt], the IC50 [1] was 26 nM and the IC50 [2] was 6000 nM.
`CC(=O)Nc1ccc2c(c1)CCC(CN1CCC(O)(Cc3ccccc3)CC1)C2=O.Cl` (racemic) showed a melting point of 123 to 126 °C.
For `CCc1ccc(CC2(O)CCN(CC3Cc4cc(O)ccc4O3)CC2)cc1.Cl` (racemic) [Example 7, (RS)-4-(4-ethyl-benzyl)-1-(5-hydroxy-2,3-dihydro-benzofuran-2-ylmethyl)-piperidin-4-ol hydrochloride], the “Electrophysiology NR1C + NR2A % block by 10 μM” value [3] was 12% and the “Electrophysiology NR1C + NR2B % block by 0.1 μM” value [4] was 89%.
`Cc1ccc(CC2(O)CCN(CC3Cc4cc(O)ccc4N3)CC2)cc1` (racemic) [Example 21, (RS)-2-[4-Hydroxy-4-(4-methyl-benzyl)-piperidin-1-ylmethyl]-2,3-dihydro-1H-indol-5-ol] gave a melting point of 90 to 94 °C.
With `Cc1ccc(CC2(O)CCN(CC3=Cc4ccc(O)cc4CC3)CC2)cc1` [Example 1, 1-(6-Hydroxy-3,4-dihydro-naphthalene-2-ylmethyl)-4-(4-methyl-benzyl)-piperidine-4-ol] the IC50 [1] was 40 nM, the “Electrophysiology NR1C + NR2A % block by 10 μM” value [3] was 65* % and the “Electrophysiology NR1C + NR2B % block by 0.1 μM” value [4] was 72%.
`Cc1ccc(CC2(O)CCN(Cc3cc4ccc(O)cc4o3)CC2)cc1.Cl` showed a melting point of 214 °C.
`CS(=O)(=O)Nc1ccc2c(c1)CC(CN1CCC(O)(Cc3ccc(Cl)cc3)CC1)O2` (racemic) [Example 22, Hydrochloride] showed an IC50 [1] of 40 nM.
`Oc1ccc2c(c1)CC[C@H](CN1CCC(O)(Cc3ccccc3)CC1)[C@H]2O` (racemic) [Example 29, (1RS,2RS)-2-(4-benzyl-4-hydroxy-piperidin-1-yl-methyl)-6-hydroxy-1,2,3,4-tetrahydro-naphthalen-1-ol] gave a melting point of 94 to 98 °C.
`Cc1ccc(CC2(O)CCN(CC3Cc4ccc(O)cc4O3)CC2)cc1.Cl` (racemic) showed a melting point of 203 to 205 °C.
`Cc1ccc(CC2(O)CCN(CC3=Cc4ccc(O)cc4C3)CC2)cc1` [Example 20, 1-(6-Hydroxy-1H-inden-2-ylmethyl)-4-(4-methyl-benzyl)-piperidin-4-ol] showed a melting point of 154 to 157 °C.
For `Cl.Oc1ccc2c(c1)C[C@@H](CN1CCC(O)(Cc3ccc(Cl)cc3)CC1)O2` [Example 14, (S)-1-(5-Hydroxy-2,3-dihydro-benzofuran-2-ylmethyl)-4-(4-chloro-benzyl)-piperidin-4-ol hydrochloride], the “Electrophysiology NR1C + NR2A % block by 10 μM” value [3] was 9% and the “Electrophysiology NR1C + NR2B % block by 0.1 μM” value [4] was 90%.
In the case of `Cc1ccc(CC2(O)CCN(C[C@@H]3Cc4cc(O)ccc4O3)CC2)cc1.Cl` [Example 13, (S)-1-(5-Hydroxy-2,3-dihydro-benzofuran-2-ylmethyl)-4-(4-methyl-benzyl)-piperidin-4-ol hydrochloride], the “Electrophysiology NR1C + NR2A % block by 10 μM” value [3] is reported as 8% and the “Electrophysiology NR1C + NR2B % block by 0.1 μM” value [4] is reported as 93%.
In the case of `Cc1ccc(CC2(O)CCN(CC3Cc4cc(O)ccc4C3O)CC2)cc1` (stereo not drawn) [Example 16, (1RS,2RS) and (1RS, 2SR)-2-[4-Hydroxy-4-(4-methyl-benzyl)-piperidine-1-ylmethyl]-indan-1,5-diol Fumarate Salt], the “Electrophysiology NR1C + NR2A % block by 10 μM” value [3] is reported as 6%.
